SMILES	melting point [°C]
CCc1ccc(CC(=O)Nc2ccc(S(N)(=O)=O)cc2Cl)cc1Oc1cc(C#N)cc(C#N)c1Cl [Compound I-54, 2-[3-(2-Chloro-3,5-dicyano-phenoxy)-4-ethyl-phenyl]-N-(2-chloro-4-sulfamoyl-phenyl)-acetamide]	180.3 to 183.1
Cc1cc(S(=O)(=O)NC(=O)c2cccnc2)ccc1NC(=O)Cc1ccc(Cl)c(Oc2cc(Cl)cc(C#N)c2)c1F.Cl	261.8 to 263.6
Cc1cc(CC(=O)Nc2ccc(S(N)(=O)=O)cc2Cl)cc(Oc2cc(Cl)cc(C#N)c2)c1 [Compound I-143, 2-[3-(3-Chloro-5-cyano-phenoxy)-5-methyl-phenyl]-N-(2-chloro-4-sulfamoyl-phenyl)-acetamide]	194.1 to 195.9
CC(C)c1ccc(CC(=O)Nc2ccccc2Cl)cc1Oc1cc(Cl)ccc1Br [Compound I-27, 2-[3-(2-Bromo-5-chloro-phenoxy)-4-isopropyl-phenyl]-N-(2-chloro-phenyl)-acetamide]	142.9 to 143.6
CNS(=O)(=O)c1ccc(NC(=O)Cc2ccc(Cl)c(Oc3cc(Cl)cc(C#N)c3)c2F)c(C)c1 [Compound I-108, 2-[4-Chloro-3-(3-chloro-5-cyano-phenoxy)-2-fluoro-phenyl]-N-(2-methyl-4-methylsulfamoyl-phenyl)-acetamide]	204.4 to 207.3
CCc1ccc(CC(=O)Nc2ccccc2Cl)cc1Oc1cc(Cl)ccc1C#N [Compound I-18, 2-[3-(5-Chloro-2-cyano-phenoxy)-4-ethyl-phenyl]-N-(2-chloro-phenyl)-acetamide]	168 to 169.9

Second part, the compound after the results:

melting point [°C]	SMILES
212 to 212.8	COc1ccc(CC(=O)Nc2ccc(S(N)(=O)=O)cc2Cl)c(F)c1Oc1cc(Cl)cc(C#N)c1 [Compound I-190, 2-[3-(3-Chloro-5-cyano-phenoxy)-2-fluoro-4-methoxy-phenyl]-N-(2-chloro-4-sulfamoyl-phenyl)-acetamide]
173 to 174	CSc1nc(NC(=O)Cc2ccc(C)c(Oc3cc(Cl)cc(C#N)c3)c2)n(C)n1 [Compound I-230, 2-[3-(3-Chloro-5-cyano-phenoxy)-4-methyl-phenyl]-N-(2-methyl-5-methylsulfanyl-2H-[1,2,4]triazol-3-yl)-acetamide]
247.9 to 250.9	N#Cc1cc(C#N)cc(Sc2cc(CC(=O)Nc3ccc(S(N)(=O)=O)cc3)ccc2Cl)c1 [Compound I-242, 2-[4-Chloro-3-(3,5-dicyano-phenylsulfanyl)-phenyl]-N-(4-sulfamoyl-phenyl)-acetamide]
200.3 to 201.1	Cc1cc(CC(=O)Nc2ccc(S(N)(=O)=O)cc2C)cc(Oc2cc(C#N)ccc2Cl)c1 [Compound I-147, 2-[3-(2-Chloro-5-cyano-phenoxy)-5-methyl-phenyl]-N-(2-methyl-4-sulfamoyl-phenyl)-acetamide]
205.4 to 207.7	N#Cc1cc(Oc2c(Br)ccc(CC(=O)Nc3ccc(S(N)(=O)=O)cc3Cl)c2F)cc(C(F)F)c1 [Compound I-165, 2-[4-Bromo-3-(3-cyano-5-difluoromethyl-phenoxy)-2-fluoro-phenyl]-N-(2-chloro-4-sulfamoyl-phenyl)-acetamide]
156.2 to 158.2	Cc1cc(S(N)(=O)=O)ccc1NC(=O)Cc1ccc(Cl)c(Oc2cc(C#N)cc(C#CCN(C)C)c2)c1F [Compound I-187, 2-{4-Chloro-3-[3-cyano-5-(3-dimethylamino-prop-1-ynyl)-phenoxy]-2-fluoro-phenyl}-N-(2-methyl-4-sulfamoyl-phenyl)-acetamide]
199.3 to 203	COCCC(=O)N(C)S(=O)(=O)c1ccc(NC(=O)Cc2ccc(Cl)c(Oc3cc(Cl)cc(C#N)c3)c2F)c(Cl)c1 [Compound I-172, 2-[4-Chloro-3-(3-chloro-5-cyano-phenoxy)-2-fluoro-phenyl]-N-{2-chloro-4-[(3-methoxy-propionyl)-methyl-sulfamoyl]-phenyl}-acetamide]
125.1 to 127	Cc1cc(CC(=O)Nc2ccccc2Cl)cc(C(=O)c2ccccc2Cl)c1 [Compound I-259, 2-[3-(2-Chloro-benzoyl)-5-methyl-phenyl]-N-(2-chloro-phenyl)-acetamide]

From US8329755B2, “Methods for treating retroviral infections” (Roche Palo Alto LLC, priority 2004, dated 2012)
